In data set [1] the test system is RAW264.7. The experiment in a line: Antiinflammatory activity in mouse RAW264.7 cells assessed as inhibition of LPS-induced IL-6 release incubated for 4 hrs prior to LPS challenge measured after 24 hrs by ELISA. The class given is functional, cell-based.
Data set [2] relates to RAW264.7. The experiment in a line: Antiinflammatory activity in mouse RAW264.7 cells assessed as inhibition of LPS-induced IL-1beta release at 0.5 to 100 ug/ml incubated for 4 hrs prior to LPS challenge measured after 24 hrs by ELISA. The class given is functional, cell-based.
For data set [3], the system named is RAW264.7. The experiment in a line: Antiinflammatory activity in mouse RAW264.7 cells assessed as inhibition of LPS-induced IL-10 release incubated for 4 hrs prior to LPS challenge measured after 24 hrs by ELISA. The class given is functional, cell-based.
The test system of data set [4] is RAW264.7. The experiment in a line: Antiinflammatory activity in mouse RAW264.7 cells assessed as inhibition of LPS-induced TNF-alpha release at 0.5 to 100 ug/ml incubated for 4 hrs prior to LPS challenge measured after 24 hrs by ELISA. The class given is functional, cell-based.
The subject of data set [5] is RAW264.7. Nature of the data set: Antiinflammatory activity in mouse RAW264.7 cells assessed as inhibition of LPS-induced TNF-alpha release incubated for 4 hrs prior to LPS challenge measured after 24 hrs by ELISA. The class given is functional, cell-based.
Data set [6] relates to RAW264.7. The experiment in a line: Antiinflammatory activity in mouse RAW264.7 cells assessed as inhibition of LPS-induced IL-6 release at 0.5 to 100 ug/ml incubated for 4 hrs prior to LPS challenge measured after 24 hrs by ELISA. The class given is functional, cell-based.
For data set [7], the system named is RAW264.7. The experiment in a line: Antiinflammatory activity in mouse RAW264.7 cells assessed as inhibition of LPS-induced IL-10 release at 0.5 to 100 ug/ml incubated for 4 hrs prior to LPS challenge measured after 24 hrs by ELISA. The class given is functional, cell-based.
Data set [8] relates to RAW264.7. The experiment in a line: Cytotoxicity against mouse RAW264.7 cells up to 50 ug/ml after 24 hrs by MTT assay in presence of LPS. The class given is cell-based. Particulars: raw264.7, 24 h.
Data set [9] concerns RAW264.7. Nature of the data set: Antiinflammatory activity in mouse RAW264.7 cells assessed as inhibition of LPS-induced IL-1beta release incubated for 4 hrs prior to LPS challenge measured after 24 hrs by ELISA. The class given is functional, cell-based.
Data set [10] is described as follows: (§1) Inhibition of LPS-induced NF-kappaB activation in HEK293 cells incubated for 4 hrs prior to LPS challenge measured after 48 hrs by luciferase reporter gene assay. The class given is cell-based. The conditions noted are these: Homo sapiens.
The test system of another data set is HEK293. The data set is described as §1. The conditions noted are these: Homo sapiens. The class given is cell-based.

Molecules are shown by their SMILES. Calls of active or inactive are those of the source. The calls are words filed in the database; no cut-off is given here.

In the case of `C[C@@H]1CC[C@]2(C(=O)O)CC[C@]3(C)C(=CC[C@@H]4[C@@]5(C)C[C@@H](O)[C@@H](O)[C@@](C)(CO)[C@@H]5CC[C@]43C)[C@@H]2[C@]1(C)O`, the half-inhibitory concentration (IC50) in the data set with RAW264.7 [1] worked out at 8.04 µM; in the data set with RAW264.7 [3], 10.4 µM; in the data set on RAW264.7 [5], 14.3 µM; with RAW264.7 [9], 8.53 µM; in data set [10], 23.2 µM. For the same compound, the inhibition result in the data set with RAW264.7 [2], in the data set with RAW264.7 [4], in the data set with RAW264.7 [6] and with RAW264.7 [7] was “Active” in each case. Besides, the Activity entry in the data set with RAW264.7 [8] is recorded as “Non-toxic”. The inhibition result with HEK293 was “Dose-dependent effect”.
On to `C[C@@H]1CC[C@]2(C(=O)O)CC[C@]3(C)C(=CC[C@@H]4[C@@]5(C)C[C@@H](O)[C@H](O)[C@@](C)(CO)[C@@H]5CC[C@]43C)[C@@H]2[C@]1(C)O`, for which the inhibition entry in the data set on RAW264.7 [2], in the data set with RAW264.7 [4], in the data set with RAW264.7 [6] and with RAW264.7 [7] was “Active” throughout. The Activity result in the data set on RAW264.7 [8] is “Non-toxic”. The IC50 in [10] is 79 µM. For the same compound, the inhibition result in the data set on HEK293 is “Dose-dependent effect”.
For the compound `C[C@@H]1CC[C@]2(C(=O)O)CC[C@]3(C)C(=CC[C@@H]4[C@@]5(C)C[C@@H](O)[C@@H](O)C(C)(C)[C@@H]5CC[C@]43C)[C@@H]2[C@]1(C)O` [EUSCAPHIC ACID], the Activity result in the data set on RAW264.7 [8] is on record as “Non-toxic”. Besides, 175 µM corresponded to half-maximal inhibition in [10] (IC50). In addition, in the data set on HEK293, the inhibition result was “Dose-dependent effect”.
Regarding `C[C@]1(CO)CC[C@]2(C(=O)O[C@@H]3O[C@H](CO)[C@@H](O)[C@H](O)[C@H]3O)CC[C@]3(C)C(=C2C1)CC[C@@H]1[C@@]2(C)C[C@@H](O)[C@H](O)[C@@](C)(CO)[C@@H]2CC[C@]13C`, the inhibition result in the data set on RAW264.7 [2], in the data set with RAW264.7 [4], with RAW264.7 [6] and in the data set with RAW264.7 [7] was “Active” throughout. Also, the Activity entry in the data set with RAW264.7 [8] was “Non-toxic”. In [10], this compound showed a half-maximal inhibitory concentration (IC50) of 65.6 µM. In the data set on HEK293, the inhibition entry is “Dose-dependent effect”.

These data come from ChEMBL document CHEMBL2384960, “Anti-inflammatory secondary metabolites from the leaves of Rosa laevigata” (Bioorg Med Chem, 2013).
